Test results as given in ChEMBL document CHEMBL5143685, “Valorisation of the diterpene podocarpic acid - Antibiotic and antibiotic enhancing activities of polyamine conjugates” (Bioorg Med Chem, 2022).
In brackets after ≈: the same amount, converted by molar mass.

Experiments:
Klebsiella pneumoniae = assay: Antibacterial activity against Klebsiella pneumoniae ATCC 700603 assessed as inhibition of bacterial growth measured after 18 hrs by resazurin dye based analysis; type: functional
Escherichia coli = assay: Antibacterial activity against Escherichia coli ATCC 25922 assessed as inhibition of bacterial growth measured after 18 hrs by resazurin dye based analysis; type: functional
Pseudomonas aeruginosa = assay: Antibacterial activity against Pseudomonas aeruginosa ATCC 27853 assessed as inhibition of bacterial growth measured after 18 hrs by resazurin dye based analysis; type: functional
Staphylococcus aureus = assay: Antibacterial activity against methicillin-resistant Staphylococcus aureus ATCC 43300 assessed as inhibition of bacterial growth measured after 18 hrs by resazurin dye based analysis; type: functional
Acinetobacter baumannii = assay: Antibacterial activity against Acinetobacter baumannii ATCC 19606 assessed as inhibition of bacterial growth measured after 18 hrs by resazurin dye based analysis; type: functional
Candida albicans = assay: Antifungal activity against Candida albicans ATCC 90028 assessed as fungal growth inhibition incubated for 36 hrs by resazurin dye based analysis; type: functional
Cryptococcus neoformans = assay: Antifungal activity against Cryptococcus neoformans ATCC 208821 assessed as fungal growth inhibition incubated for 36 hrs by resazurin dye based analysis; type: functional
[1] = Cytotoxicity against HEK293 cells assessed as cell growth inhibition measured after 20 hrs by resazurin dye based assay; type: toxicity; details: human

Compound	MIC (Klebsiella pneumoniae) [µM]	MIC (Escherichia coli) [µM]	MIC (Pseudomonas aeruginosa) [µM]	MIC (Staphylococcus aureus) [µM]	MIC (Acinetobacter baumannii) [µM]	MIC (Candida albicans) [µM]	MIC (Cryptococcus neoformans) [µM]	IC50 at 20 h [1] [µM]
C[C@]1(C(=O)O)CCC[C@]2(C)c3cc(OC(=O)CCCNCCCCCCCCNCCCNC(=O)Oc4ccc5c(c4)[C@@]4(C)CCC[C@](C)(C(=O)O)[C@@H]4CC5)ccc3CC[C@@H]12.O=C(O)C(F)(F)F.O=C(O)C(F)(F)F	> 29.4	> 29.4	> 29.4	> 29.4	> 29.4	14.7	≤ 0.23	> 29.4
C[C@]1(C(=O)O)CCC[C@]2(C)c3cc(OC(=O)NCCCNCCCCN)ccc3CC[C@@H]12	> 47.5	> 47.5	> 47.5	> 47.5	> 47.5	> 47.5	> 47.5	–
C[C@]1(C(=O)NCCCNCCCCCCCN)CCC[C@]2(C)c3cc(O)ccc3CC[C@@H]12.O=C(O)C(F)(F)F.O=C(O)C(F)(F)F	> 47.6	> 47.6	> 47.6	> 47.6	> 47.6	> 47.6	> 47.6	> 47.6
C[C@]1(C(=O)NCCCNCCCCCCN)CCC[C@]2(C)c3cc(O)ccc3CC[C@@H]12.O=C(O)C(F)(F)F.O=C(O)C(F)(F)F	> 48.6	> 48.6	> 48.6	> 48.6	> 48.6	> 48.6	> 48.6	> 48.6
COC(=O)[C@@]1(C)CCC[C@]2(C)c3cc(OC(=O)CCCNCCCCCCCNCCCNC(=O)Oc4ccc5c(c4)[C@@]4(C)CCC[C@](C)(C(=O)OC)[C@@H]4CC5)ccc3CC[C@@H]12.O=C(O)C(F)(F)F.O=C(O)C(F)(F)F	> 29.1	> 29.1	> 29.1	≤ 0.23	> 29.1	≤ 0.23	7.26	> 29.1
OC(Cn1cncn1)(Cn1cncn1)c1ccc(F)cc1F [FLUCONAZOLE]	–	–	–	–	–	0.4 (≈ 0.123 µg/mL)	26 (≈ 7.96 µg/mL)	–
CN[C@H](CC(C)C)C(=O)N[C@H]1C(=O)N[C@@H](CC(N)=O)C(=O)N[C@H]2C(=O)N[C@H]3C(=O)N[C@H](C(=O)N[C@H](C(=O)O)c4cc(O)cc(O)c4-c4cc3ccc4O)[C@H](O)c3ccc(c(Cl)c3)Oc3cc2cc(c3O[C@@H]2O[C@H](CO)[C@@H](O)[C@H](O)[C@H]2O[C@H]2C[C@](C)(N)[C@H](O)[C@H](C)O2)Oc2ccc(cc2Cl)[C@H]1O [VANCOMYCIN]	–	–	–	0.7 (≈ 1.01 µg/mL)	–	–	–	–
CCCCCNC(=O)[C@@]1(C)CCC[C@]2(C)c3cc(OC(=O)CCCNCCCCCCCCCCNCCCNC(=O)Oc4ccc5c(c4)[C@@]4(C)CCC[C@](C)(C(=O)NCCCCC)[C@@H]4CC5)ccc3CC[C@@H]12.O=C(O)C(F)(F)F.O=C(O)C(F)(F)F	> 25.5	> 25.5	> 25.5	≤ 0.2	> 25.5	≤ 0.2	3.19	> 25.5
COC(=O)[C@@]1(C)CCC[C@]2(C)c3cc(OC(=O)CCCNCCCCCCCCCCNCCCNC(=O)Oc4ccc5c(c4)[C@@]4(C)CCC[C@](C)(C(=O)OC)[C@@H]4CC5)ccc3CC[C@@H]12.O=C(O)C(F)(F)F.O=C(O)C(F)(F)F	> 28	> 28	> 28	3.5	> 28	≤ 0.22	≤ 0.22	1.3
C[C@]1(C(=O)NCCCNCCCCCCCCN)CCC[C@]2(C)c3cc(O)ccc3CC[C@@H]12.O=C(O)C(F)(F)F.O=C(O)C(F)(F)F	> 46.7	> 46.7	> 46.7	46.7	> 46.7	> 46.7	> 46.7	> 46.7
C[C@]1(C(=O)NCCCNCCCCCCCCCCCCNCCCNC(=O)[C@@]2(C)CCC[C@]3(C)c4cc(O)ccc4CC[C@@H]23)CCC[C@]2(C)c3cc(O)ccc3CC[C@@H]12.O=C(O)C(F)(F)F.O=C(O)C(F)(F)F	> 30.3	> 30.3	> 30.3	≤ 0.24	> 30.3	7.58	≤ 0.24	> 30.3
CCCCCNC(=O)[C@@]1(C)CCC[C@]2(C)c3cc(OC(=O)CCCNCCCCNCCCNC(=O)Oc4ccc5c(c4)[C@@]4(C)CCC[C@](C)(C(=O)NCCCCC)[C@@H]4CC5)ccc3CC[C@@H]12.O=C(O)C(F)(F)F.O=C(O)C(F)(F)F	> 27.4	> 27.4	> 27.4	≤ 0.21	> 27.4	13.7	> 27.4	> 27.4
CC[C@H]1OC(=O)[C@H](C)[C@@H](O[C@H]2C[C@@](C)(OC)[C@@H](O)[C@H](C)O2)[C@H](C)[C@@H](O[C@@H]2O[C@H](C)C[C@H](N(C)C)[C@H]2O)[C@](C)(O)C[C@@H](C)C(=O)[C@H](C)[C@@H](O)[C@]1(C)O [ERYTHROMYCIN]	–	174 (≈ 128 µg/mL)	–	–	–	–	–	–
C[C@]1(C(=O)O)CCC[C@]2(C)c3cc(OC(=O)NCCCNCCCCCCCCCCCCN)ccc3CC[C@@H]12.O=C(O)C(F)(F)F.O=C(O)C(F)(F)F	> 32.8	> 32.8	> 32.8	> 32.8	> 32.8	32.8	> 32.8	> 32.8
C[C@]1(C(=O)O)CCC[C@]2(C)c3cc(OC(=O)CCCNCCCCCCCCCCCCNCCCNC(=O)Oc4ccc5c(c4)[C@@]4(C)CCC[C@](C)(C(=O)O)[C@@H]4CC5)ccc3CC[C@@H]12.O=C(O)C(F)(F)F.O=C(O)C(F)(F)F	> 28	> 28	> 28	14	> 28	> 28	3.5	> 28
CCCCCNC(=O)[C@@]1(C)CCC[C@]2(C)c3cc(OC(=O)CCCNCCCCCCCCNCCCNC(=O)Oc4ccc5c(c4)[C@@]4(C)CCC[C@](C)(C(=O)NCCCCC)[C@@H]4CC5)ccc3CC[C@@H]12.O=C(O)C(F)(F)F.O=C(O)C(F)(F)F	> 26.1	> 26.1	> 26.1	1.63	> 26.1	≤ 0.2	≤ 0.2	> 26.1
COC(=O)[C@@]1(C)CCC[C@]2(C)c3cc(OC(=O)CCCNCCCCNCCCNC(=O)Oc4ccc5c(c4)[C@@]4(C)CCC[C@](C)(C(=O)OC)[C@@H]4CC5)ccc3CC[C@@H]12.O=C(O)C(F)(F)F.O=C(O)C(F)(F)F	> 30.2	30.2	> 30.2	1.89	30.2	15.1	1.89	16.4
C[C@]1(C(=O)NCCCNCCCCCCCCCCNCCCNC(=O)[C@@]2(C)CCC[C@]3(C)c4cc(O)ccc4CC[C@@H]23)CCC[C@]2(C)c3cc(O)ccc3CC[C@@H]12.O=C(O)C(F)(F)F.O=C(O)C(F)(F)F	> 31.1	> 31.1	> 31.1	≤ 0.24	> 32.1	> 32.1	3.89	0.87
C[C@@]12CCC[C@](C)(C(=O)O)[C@H]1CCc1ccc(OC(=O)CCCNCCCCNCCCNC(=O)Oc3ccc4c(c3)[C@@]3(C)CCC[C@](C)(C(=O)O)[C@@H]3CC4)cc12.O=C(O)C(F)(F)F.O=C(O)C(F)(F)F	> 31	> 31	> 31	> 31	> 31	7.76	7.76	> 31
C[C@]1(C(=O)NCCCNCCCCCCCCNCCCNC(=O)[C@@]2(C)CCC[C@]3(C)c4cc(O)ccc4CC[C@@H]23)CCC[C@]2(C)c3cc(O)ccc3CC[C@@H]12.O=C(O)C(F)(F)F.O=C(O)C(F)(F)F	> 32	32	> 32	8	32	32	32	18.1
COC(=O)[C@@]1(C)CCC[C@]2(C)c3cc(OC(=O)CCCNCCCCCCCCNCCCNC(=O)Oc4ccc5c(c4)[C@@]4(C)CCC[C@](C)(C(=O)OC)[C@@H]4CC5)ccc3CC[C@@H]12.O=C(O)C(F)(F)F.O=C(O)C(F)(F)F	> 28.7	> 28.7	> 28.7	≤ 0.22	> 28.7	≤ 0.22	0.45	> 28.7
COLISTIN	0.2	0.1	0.2	–	0.2	–	–	–
C[C@]1(C(=O)O)CCC[C@]2(C)c3cc(O)ccc3CC[C@@H]12 [PODOCARIC ACID]	> 117	> 117	> 117	> 117	> 117	> 117	> 117	–
C[C@H]1c2cccc(O)c2C(=O)C2=C(O)[C@]3(O)C(=O)C(C(N)=O)=C(O)[C@@H](N(C)C)[C@@H]3[C@@H](O)[C@@H]21 [DOXYCYCLINE]	–	–	90 (≈ 40 µg/mL)	–	–	–	–	–
C[C@]1(C(=O)O)CCC[C@]2(C)c3cc(OC(=O)NCCCNCCCCCCCCCCN)ccc3CC[C@@H]12	> 42.2	> 42.2	> 42.2	> 42.2	> 42.2	> 42.2	> 42.2	–
C[C@]1(C(=O)NCCCNCCCCN)CCC[C@]2(C)c3cc(O)ccc3CC[C@@H]12	> 50.8	> 50.8	> 50.8	> 50.8	> 50.8	> 50.8	> 50.8	–
